Results taken from patent US5135931A, “Pyridinylpiperazine derivatives” (Akzo N.V., priority 1990, dated 1992).
Where a name gives a salt, the structure may show the parent alone.

What was measured:
[1] = biological target: T1, 5-HT1A (serotonin 1A) receptors (Homo sapiens, UniProt P08908); experiment: serotonin binding activity, 5-HT1A; conditions: average test results; read-out: pKi 5-HT1A (converted)
T1 sequence (P08908 1-422): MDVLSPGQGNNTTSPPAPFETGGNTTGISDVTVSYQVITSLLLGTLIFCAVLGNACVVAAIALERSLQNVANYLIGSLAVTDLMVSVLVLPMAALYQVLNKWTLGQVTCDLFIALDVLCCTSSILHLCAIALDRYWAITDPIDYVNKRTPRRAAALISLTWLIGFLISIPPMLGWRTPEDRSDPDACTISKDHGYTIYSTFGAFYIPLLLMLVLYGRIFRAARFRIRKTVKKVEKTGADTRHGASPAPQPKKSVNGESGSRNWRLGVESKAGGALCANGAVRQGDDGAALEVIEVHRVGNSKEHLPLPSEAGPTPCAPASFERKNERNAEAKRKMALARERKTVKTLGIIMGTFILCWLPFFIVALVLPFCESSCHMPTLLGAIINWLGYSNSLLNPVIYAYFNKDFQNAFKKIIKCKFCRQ
Description: (§1) The various compounds of Examples I-VIII were analyzed for serotonin binding activity.

[2] = biological target: 5-HT1B (serotonin 1B) receptor (Rattus norvegicus, UniProt P28564); experiment: serotonin binding activity, 5-HT1B; conditions: average test results; read-out: pKi 5-HT1B (converted)
5-HT1B (serotonin 1B) receptor, sequence (P28564 whole entry): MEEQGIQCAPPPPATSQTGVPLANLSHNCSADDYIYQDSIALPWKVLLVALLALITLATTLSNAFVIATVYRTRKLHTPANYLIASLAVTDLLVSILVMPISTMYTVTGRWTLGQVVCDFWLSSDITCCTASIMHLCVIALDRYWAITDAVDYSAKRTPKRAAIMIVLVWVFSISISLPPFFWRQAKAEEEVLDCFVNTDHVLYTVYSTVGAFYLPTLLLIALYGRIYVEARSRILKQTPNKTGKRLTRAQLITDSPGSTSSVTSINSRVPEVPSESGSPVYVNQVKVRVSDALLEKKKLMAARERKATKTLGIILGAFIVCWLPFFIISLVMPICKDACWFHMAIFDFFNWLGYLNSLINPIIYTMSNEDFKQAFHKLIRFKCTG
Description: as §1

Structure (SMILES) | Ki [1] [nM] | Ki [2] [nM]
O=C(NCCN1CCN(c2cccc(C(F)(F)F)n2)CC1)c1ccc(F)cc1 [Example I, 4-fluoro-N-[2-[4-[6-(trifluoromethyl)-2-pyridinyl]-1-piperazinyl]ethyl]benzamide (E)-2-butenedioate (1:1) salt] | 1.58 | > 10000
O=C(NCCCCN1CCN(c2cccc(C(F)(F)F)n2)CC1)c1ccc(F)cc1 [Example IV, 4-fluoro-N-[4-[4-[6-(trifluoromethyl) -2-pyridinyl]-1-piperazinyl]butyl]benzamide (E)-2-butenedioate (2:1) salt] | 7.94 | 501
O=C(NCCN1CCN(c2cccc(C(F)(F)F)n2)CC1)c1ccccc1 [II, N-[2-[4-[6-(trifluoromethyl)-2-pyridinyl]-1-piperazinyl]ethyl]benzamide (E)-2-butenedioate (1:1) salt] | 1 | 10000
O=C(NCCN1CCN(c2cc(C(F)(F)F)ccn2)CC1)c1ccc(F)cc1 [III, 4-fluoro-N-[2-[4-[4-(trifluoromethyl) -2-pyridinyl]-1-piperazinyl]ethyl]benzamide (E)-2-butenedioate (1:1) salt] | 20 | 10000
O=C(NCCCCN1CCN(c2cccc(C(F)(F)F)n2)CC1)c1ccccc1 [V, N-[4-[4-[6-(trifluoromethyl)-2-pyridinyl]-1-piperazinyl]butyl]benzamide (E)-2-butenedioate (2:1) salt] | 6.31 | 1000

Continued, values first:

Ki [1] [nM] | Ki [2] [nM] | Structure (SMILES)
31.6 | > 10000 | CN(CCN1CCN(c2cccc(C(F)(F)F)n2)CC1)C(=O)c1ccc(F)cc1 [VII, 4-fluoro-N-[2-[4-(6-(trifluoromethyl)-2-pyridinyl)-1-piperazinyl]ethyl]-N-methylbenzamide]
63.1 | > 10000 | CN(CCCN1CCN(c2cccc(C(F)(F)F)n2)CC1)C(=O)c1ccc(F)cc1 [VIII, 4-fluoro-N-[3-[4-(6-(trifluoromethyl)-2-pyridinyl)-1-piperazinyl]propyl]-N-methylbenzamide]
50.1 | 5010 | O=C(NCCN1CCN(c2cccc(C(F)(F)F)n2)CC1)c1cccnc1 [VI]
